Measurements taken from patent publication US5594012A, “Amino acid derivatives and anti-active oxygen agents” (Ajinomoto Co., Inc., priority 1992, dated 1997).

Test system: lipid peroxidation in homogenate of murine swiss 3T3 cells
Assay: Inhibitory effects on UV-induced lipid peroxidation (homogenate of murine swiss 3T3 cells)
Assay type: biochemical
Conditions: 1 mM test compound; UVB 0.4 mW/cm^2, 90 min; pH 7.2 to 7.8; TBA, 535 nm
Description: Test for Inhibitory Effects on UV-induced Lipid Peroxidation
The test was carried out on the basis of the methods described in Biochim. Biophys. […] Namely, 12 μl of an aqueous sodium hydroxide solution of each of the test compounds shown in Table 5 below was added to 1.2 ml of a homogenate of murine swiss 3T3 cells (i.e. a kind of murine skin cells) prepared by a conventional method in 20 mM phosphate buffer (protein content: 1.5 to 1.8 mg/ml). The final concentration of the test compounds was adjusted to be 1 mM and the pH of the solution was adjusted to 7.2 to 7.8. If test compounds were not soluble in an aqueous sodium hydroxide solution, they were dissolved in N,N-dimethyl sulfoxide (DMSO).
This solution (1.1 ml) was irradiated with UV rays (0.4 mW/cm^2, 90 min.) using a UVB lamp "EB-280C/J" (manufactured by Spectronics). To an aliquot (1.0 ml) of this solution were successively added 0.2 ml of an aqueous solution of sodium dodecyl sulfate and 1.0 ml of an aqueous solution of thiobarbituric acid/trichloroacetic acid/hydrochloric acid, and the mixed solution was heated in a boiling water bath for 15 minutes. After ice-cooling, the solution was extracted with 1.0 ml of 1-butanol to prepare a sample for determining peroxide lipid as absorbance at a wavelength of 535 nm using a spectrophotometer "Model 320" (manufactured by Hitachi).
(§1) [formula] A1 : Absorbance when a test compound was added. A2 : Absorbance when a test compound was not added.
A3 : Absorbance when a test compound was not added and UV rays were not irradiated.

Compound | % Inhibition of UV-induced lipid peroxidation [%]
O=C(O)CNCc1ccccc1O [Synthesis Example 9] | 60
CC(C)C(NCc1ccccc1O)C(=O)O (stereo not shown) [Synthesis Example 8] | 60
OCCNCc1ccccc1O [Synthesis Example 14] | 45
CC(NCc1ccccc1O)C(=O)O (stereo not shown) [Synthesis Example 6] | 66
O=C(O)CCNCc1ccccc1O [Synthesis Example 12] | 29
Oc1ccccc1CNCCc1c[nH]cn1 [Synthesis Example 15] | 51
O=C(O)C(Cc1ccccc1)NCc1ccccc1O (stereo not shown) [Synthesis Example 7] | 48
O=S(=O)(O)CCNCc1ccccc1O [Synthesis Example 13] | 53
NC(=O)CNCc1ccccc1O [Synthesis Example 11] | 77
O=C(O)CCC(NCc1ccccc1O)C(=O)O (stereo not shown) [Synthesis Example 5] | 52
CC(O)C(NCc1ccccc1O)C(=O)O (stereo not shown) [Synthesis Example 10] | 56
O=C(O)CN(CCN(CC(=O)O)CC(=O)O)CC(=O)O [EDTA, reference compound] | 34

Test system: lipid peroxidation in murine brain homogenate
Assay: Inhibitory effects on metal ion-induced lipid peroxidation (murine brain homogenate)
Assay type: biochemical, murine (C57 black mouse)
Conditions: 1 mM test compound; 100 μM ammonium iron (II) sulphate; 37° C., 30 minutes; pH 7.2 to 7.8
Description: Test for Inhibitory Effects on Metal Ion-induced Lipid Peroxidation
(§2) The test was carried out according to the method described in Method in Enzymol., Vol. 52, page 302, 1978. A C57 black mouse was killed by cervical dislocation, and the whole brain extracted from the dissected head was washed with 20 mM phosphate buffer (hereinafter referred to as "PBS-2"). Then, the brain was added with PBS-2 in an amount of 19 times its wet weight, and the mixture was disrupted and homogenized with a homogenizer "Polytron" (manufactured by Kinematica). The thus prepared 5% solution of the murine brain homogenate in PBS-2 was diluted 1:5 with fresh PBS-2. To 800 μl of the resulting 1% solution of the murine brain homogenate in PBS-2 (protein content: 0.8 to 1.0 mg/ml) were successively added 100 μl of a PBS-2 solution of each of the test compounds shown in Table 7 below and 100 μl of an aqueous solution of ammonium iron (II) sulphate. The final concentration of the test compounds and ammonium iron (II) sulphate were adjusted to be 1 mM and 100 μM, respectively. If test compounds were not soluble in PBS-2 alone, an aqueous sodium hydroxide solution or DMSO was added. The pH of the solution was adjusted to 7.2 to 7.8.
The solution after heated at 37° C. for 30 minutes was added with 2.0 ml of an aqueous solution of thiobarbituric acid/trichloroacetic acid/hydrochloric acid, and the mixture was heated in a boiling water bath for 15 minutes. After ice-cooling, the solution was extracted with 1.0 ml of 1-butanol to prepare a sample for determining the peroxide lipid in the same way as described in Test Example 1.
as §1
A3 : Absorbance when a test compound was not added and heating at 37° C. for 30 minutes was not carried out.

Compound | % Inhibition of metal ion-induced lipid peroxidation [%]
CC(C)CC(N=Cc1c(O)ccc2ccccc12)C(=O)O (stereo not shown) [Synthesis Example 38] | 74
O=C1O[C@H]([C@@H](O)CO)C(O)=C1O [Vitamin C, reference compound] | -23
OCC(Cc1c[nH]cn1)N=Cc1c(O)ccc2ccccc12 (stereo not shown) [Synthesis Example 33] | 95
Oc1ccc2ccccc2c1C=NCCc1c[nH]c2ccccc12 [Synthesis Example 56] | 57
COC(=O)C(CO)N=Cc1c(O)ccc2ccccc12 (stereo not shown) [Synthesis Example 40] | 88
CC(C)C(CO)N=Cc1c(O)ccc2ccccc12 (stereo not shown) [Synthesis Example 37] | 30
CCC(C)C(N=Cc1c(CO)cnc(C)c1O)C(=O)O (stereo not shown) [Synthesis Example 72] | 14
NC(=O)CC(N=Cc1c(O)ccc2ccccc12)C(=O)O (stereo not shown) [Synthesis Example 44] | 90
O=C(CCC(N=Cc1c(O)ccc2ccccc12)C(=O)O)NO (stereo not shown) [Synthesis Example 50] | 85
NC(=O)CN=Cc1c(O)ccc2ccccc12 [Synthesis Example 35] | 16
CC(O)C(N=Cc1c(O)ccc2ccccc12)C(=O)O (stereo not shown) [Synthesis Example 41] | 79
COC(=O)C(Cc1ccccc1)NC(=O)C(CC(=O)O)N=Cc1c(O)ccc2ccccc12 (stereo not shown) [Synthesis Example 67] | 38
O=C(O)C(Cc1ccc(O)c(O)c1)N=Cc1c(O)ccc2ccccc12 (stereo not shown) [Synthesis Example 32] | 83
O=C(O)C(Cc1c[nH]c2ccccc12)N=Cc1c(O)ccc2ccccc12 (stereo not shown) [Synthesis Example 55] | 87
O=C(O)C(Cc1ccccc1)N=Cc1c(O)ccc2ccccc12 (stereo not shown) [Synthesis Example 54] | 83
COc1cccc(C=NC(Cc2c[nH]cn2)C(=O)O)c1O (stereo not shown) [Synthesis Example 63] | 60
CSCCC(N=Cc1c(O)ccc2ccccc12)C(=O)O (stereo not shown) [Synthesis Example 42] | 86

Compound | % Inhibition of metal ion-induced lipid peroxidation [%]
Vitamin E [reference compound] | 29
O=C(O)C(Cc1c[nH]cn1)N=Cc1cc(Br)ccc1O (stereo not shown) [Synthesis Example 62] | 45
COC(=O)CCC(N=Cc1c(O)ccc2ccccc12)C(=O)OC (stereo not shown) [Synthesis Example 49] | 81
Oc1ccc2ccccc2c1C=NCCc1c[nH]cn1 [Synthesis Example 46] | 80
O=C(O)CC(N=Cc1c(O)ccc2ccccc12)C(=O)O (stereo not shown) [Synthesis Example 43] | 40
CC(C)C(N=Cc1cc(Cl)ccc1O)C(=O)O (stereo not shown) [Synthesis Example 64] | 60
O=S(=O)(O)CCN=Cc1c(O)ccc2ccccc12 [Synthesis Example 65] | 73
O=C(O)C(CO)N=Cc1cc(Cl)ccc1O (stereo not shown) [Synthesis Example 57] | 44
NC(=O)CCC(N=Cc1c(O)ccc2ccccc12)C(=O)O (stereo not shown) [Synthesis Example 51] | 84
O=C(O)C(CO)N=Cc1cc(Br)ccc1O (stereo not shown) [Synthesis Example 58] | 40
COC(=O)C(Cc1c[nH]cn1)N=Cc1c(O)ccc2ccccc12 (stereo not shown) [Synthesis Example 45] | 85
O=C(O)C(Cc1c[nH]cn1)N=Cc1cc(Cl)ccc1O (stereo not shown) [Synthesis Example 61] | 45
CCC(C)C(N=Cc1c(O)ccc2ccccc12)C(=O)O (stereo not shown) [Synthesis Example 39] | 50
O=C(O)CNC(=O)CN=Cc1c(O)ccc2ccccc12 [Synthesis Example 66] | 20
O=C(O)CN=Cc1c(O)ccc2ccccc12 [Synthesis Example 34] | 57
O=C(O)C(CO)N=Cc1cc([N+](=O)[O-])ccc1O (stereo not shown) [Synthesis Example 59] | 11
CC(N=Cc1c(O)ccc2ccccc12)C(=O)O (stereo not shown) [Synthesis Example 36] | 80

Test system: lipid peroxidation in murine brain homogenate
Assay: Inhibitory effects on lipid peroxidation (murine brain homogenate)
Assay type: biochemical, murine (C57 black mouse)
Conditions: 30 μM test compound; no added iron; 37° C., 60 minutes; pH 7.2 to 7.8
Description: as §2
Test for Inhibitory Effects on Lipid Peroxidation
To 900 μl of a 5% solution of the murine brain homogenate in PBS-2 prepared in the same way as described in Test Example 3 was added 100 μl of a PBS-2 solution of each of the test compounds shown in Table 8 below. The final concentration of the test compounds was adjusted to be 30 μM. If test compounds were not soluble in PBS-2 alone, an aqueous solution of sodium hydroxide or DMSO was added. The pH of the solution was adjusted to 7.2 to 7.8.
The solution after heated at 37° C. for 60 minutes was added with 1.0 ml of an aqeuous solution of thiobarbituric acid/trichloroacetic acid/hydrochloric acid, and the mixture was heated in a boiling water bath for 15 minutes. After ice-cooling, the solution was extracted with 2.0 ml of 1-butanol to prepare a sample for determining the lipid peroxide in the same way as described in Test Example 1. […] [formula] A4 : Absorbance when a test compound was added. A5 : Absorbance when a test compound was not added.
A6 : Abosrbance when a test compound was not added and heating at 37° C. for […] was not carried out.

Compound | % Inhibition of lipid peroxidation [%]
O=C1O[C@H]([C@@H](O)CO)C(O)=C1O [Vitamin C, reference compound] | -22
Cc1ncc(CO)c(CNC(Cc2ccc(O)cc2)C(=O)O)c1O (stereo not shown) [Synthesis Example 26] | 39
Cc1ncc(CO)c(CNC(C(=O)O)C(C)O)c1O (stereo not shown) [Synthesis Example 19] | 59
Cc1ncc(CO)c(CNC(C)C(=O)O)c1O (stereo not shown) [Synthesis Example 17] | 56
Vitamin E [reference compound] | 30
Cc1ncc(CO)c(CNC(Cc2ccccc2)C(=O)O)c1O (stereo not shown) [Synthesis Example 25] | 55
Cc1ncc(CO)c(CNC(CC(=O)O)C(=O)O)c1O (stereo not shown) [Synthesis Example 20] | 91
Cc1ncc(CO)c(CNC(Cc2c[nH]cn2)C(N)=O)c1O (stereo not shown) [Synthesis Example 23] | 39
Cc1ncc(CO)c(CNC(CCCNC(=N)N)C(=O)O)c1O (stereo not shown) [Synthesis Example 24] | 85
